Reference: US12240844B2 (Voronoi, Inc., priority 2019, dated 2025)

Assays:
LRRK2 = LRRK2 (Homo sapiens, UniProt Q5S007); experiment: LRRK2 enzyme inhibition, ADP-Glo kinase assay; format: biochemical; set-up: purchased Invitrogen PR8604B
Summary of the method: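 ADP-Glo luminescence read after 2 h at 25° C, 10 μM ATP, 25 ng purified human LRRK2 and […] substrate in Tris-HCl pH7.4 buffer with MgCl2, BSA, DTT. Twelve final concentrations, 50 μM down to 0.000001024 μM; IC50 (nM) from inhibition relative to untreated solvent control.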

human GST-CLK1 (129-end) = molecular target: T1, human GST-CLK1 (129-end) (Homo sapiens, UniProt P49759); experiment: GST-CLK1 enzyme inhibition, ADP-Glo kinase assay; format: biochemical; conditions: ATP 10 uM
T1 construct: purified human GST-CLK1 (129-end, Signalchem) enzyme; GST; purchased Signalchem
T1 sequence (P49759 129-484 limits assumed): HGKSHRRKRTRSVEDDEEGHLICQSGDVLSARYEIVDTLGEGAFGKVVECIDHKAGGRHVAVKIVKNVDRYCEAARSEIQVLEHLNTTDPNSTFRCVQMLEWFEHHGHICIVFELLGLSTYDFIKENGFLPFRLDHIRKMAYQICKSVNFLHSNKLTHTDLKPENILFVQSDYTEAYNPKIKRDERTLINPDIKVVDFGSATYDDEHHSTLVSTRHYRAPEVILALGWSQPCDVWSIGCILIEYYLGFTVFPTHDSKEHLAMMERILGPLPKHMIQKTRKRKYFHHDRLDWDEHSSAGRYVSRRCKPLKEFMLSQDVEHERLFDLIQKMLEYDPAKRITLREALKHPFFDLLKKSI
Summary of the method: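 ADP formation was read by ADP-Glo luminescence after 1 h at 25° C with 3 ng human GST-CLK1 (129-end), substrate and 10 uM ATP in Tris pH 7.4 buffer containing MgCl2, BSA and DTT. Inhibition relative to untreated solvent control gave IC50 (nM), run in triplicate.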

MDA-MB-231 cell line = experiment: MDA-MB-231 cancer cell proliferation inhibition (Cell Titer-Glo); format: cell-based; conditions: Homo sapiens, MDA-MB-231 triple-negative breast cancer cell line, 72 hours
Summary of the method: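 GI50 comes from CellTiter-Glo luminescence, read 10 min after reagent addition at RT, following 72 h compound treatment. Eleven concentrations were used (⅓ steps, highest 10 μM final) on 2000 cells/well. MDA-MB-231 and MDA-MB-468 were grown in DMEM, SHP-77 in RPMI.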

[1] = molecular target: T2, human GST-DYRK1A (full length) (Homo sapiens, UniProt Q13627); experiment: GST-DYRK1A enzyme inhibition, ADP-Glo kinase assay; format: biochemical; conditions: read-out: DYRK1 IC50
T2 construct: purified human GST-DYRK1A (full length, Thermo scientifics) enzyme; GST; purchased Thermo scientifics
Summary of the method: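 ADP-Glo luminescence quantified kinase activity after a 1 h, 25° C reaction of 10 ng full-length GST-tagged human DYRK1A, substrate and 10 uM ATP in Tris-HCl buffer pH 7.4 with MgCl2, BSA and DTT. Triplicate IC50 values (nM) calculated relative to untreated solvent control.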

Sequence of LRRK2 (Q5S007 970-2527 limits assumed): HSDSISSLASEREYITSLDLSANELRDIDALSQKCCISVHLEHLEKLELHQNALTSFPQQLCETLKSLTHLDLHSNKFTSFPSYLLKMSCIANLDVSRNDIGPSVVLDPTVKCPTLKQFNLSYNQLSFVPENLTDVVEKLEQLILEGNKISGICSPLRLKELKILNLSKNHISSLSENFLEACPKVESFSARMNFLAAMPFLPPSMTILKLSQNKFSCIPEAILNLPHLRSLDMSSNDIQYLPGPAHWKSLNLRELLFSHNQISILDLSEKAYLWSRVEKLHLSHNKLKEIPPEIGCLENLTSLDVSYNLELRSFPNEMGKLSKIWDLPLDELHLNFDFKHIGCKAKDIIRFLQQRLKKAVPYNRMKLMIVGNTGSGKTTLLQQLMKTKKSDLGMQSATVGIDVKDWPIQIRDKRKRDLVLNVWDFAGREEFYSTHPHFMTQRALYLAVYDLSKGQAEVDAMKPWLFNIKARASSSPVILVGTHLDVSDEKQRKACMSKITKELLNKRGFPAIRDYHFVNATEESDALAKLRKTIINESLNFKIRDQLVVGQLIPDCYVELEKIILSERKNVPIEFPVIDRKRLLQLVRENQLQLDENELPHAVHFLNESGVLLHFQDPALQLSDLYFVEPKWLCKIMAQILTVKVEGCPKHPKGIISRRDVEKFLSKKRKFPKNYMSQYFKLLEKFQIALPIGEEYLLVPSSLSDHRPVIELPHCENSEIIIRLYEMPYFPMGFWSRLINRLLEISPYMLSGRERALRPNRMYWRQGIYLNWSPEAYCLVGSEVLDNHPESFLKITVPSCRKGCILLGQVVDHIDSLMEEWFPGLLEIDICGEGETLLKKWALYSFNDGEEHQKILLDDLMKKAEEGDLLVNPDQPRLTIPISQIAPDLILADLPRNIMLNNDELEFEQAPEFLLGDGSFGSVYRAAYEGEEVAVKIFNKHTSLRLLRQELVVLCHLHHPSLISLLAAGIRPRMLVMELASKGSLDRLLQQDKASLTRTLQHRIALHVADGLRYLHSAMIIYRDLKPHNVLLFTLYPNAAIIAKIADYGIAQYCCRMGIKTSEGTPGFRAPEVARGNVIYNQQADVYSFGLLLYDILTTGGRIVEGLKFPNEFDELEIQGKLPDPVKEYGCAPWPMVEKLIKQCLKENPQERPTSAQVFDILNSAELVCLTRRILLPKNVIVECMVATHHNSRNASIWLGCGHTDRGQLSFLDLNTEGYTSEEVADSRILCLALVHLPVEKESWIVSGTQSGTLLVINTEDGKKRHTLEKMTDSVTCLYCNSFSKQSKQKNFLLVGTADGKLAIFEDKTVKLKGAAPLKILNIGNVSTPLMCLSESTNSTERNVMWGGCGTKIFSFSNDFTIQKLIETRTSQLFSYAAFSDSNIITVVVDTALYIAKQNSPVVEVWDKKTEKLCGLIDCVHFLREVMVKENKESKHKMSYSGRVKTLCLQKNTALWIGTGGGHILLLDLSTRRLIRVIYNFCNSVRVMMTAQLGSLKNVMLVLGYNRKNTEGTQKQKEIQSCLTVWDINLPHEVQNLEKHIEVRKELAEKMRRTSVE

SMILES	IC50 (LRRK2)	IC50 (human GST-CLK1 (129-end))	GI50 (MDA-MB-231 cell line)	IC50 [1]
COc1cc(P2(=O)CCN(C(C)=O)CC2)ccc1Nc1cc(C2CC2)c2c(C(F)(F)F)c[nH]c2n1 [Example 48, 1-(4-(4-((4-cyclopropyl-3-(trifluoromethyl)-1H-pyrrolo[2,3-b]pyridin-6-yl)amino)-3-methoxyphenyl)-4-oxido-1,4-azaphosphinan-1-yl)ethan-1-one]	0.301 to 1 µM	0.301 to 1 µM	0.301 to 1 µM	–
CCCNc1cc(Nc2ccc(C(=O)N3CCC(N4CCOCC4)CC3)c3c2OCCO3)nc2[nH]cc(C(F)(F)F)c12 [Example 162, (4-morpholinopiperidin-1-yl)(8-((4-(propylamino)-3-(trifluoromethyl)-1H-pyrrolo[2,3-b]pyridin-6-yl)amino)-2,3-dihydrobenzo[b] [1,4]dioxin-5-yl)methanone]	< 0.1 µM	< 0.1 µM	–	0.101 to 0.3 µM
N#Cc1c[nH]c2nc(Nc3ccc(C(=O)N4CCOCC4)c4c3OCCO4)cc(C3CC3)c12 [Example 225, 4-cyclopropyl-6-((8-(morpholine-4-carbonyl)-2,3-dihydrobenzo[b] [1,4]dioxin-5-yl)amino)-1H-pyrrolo[2,3-b]pyridine-3-carbonitrile]	< 0.1 µM	0.301 to 1 µM	0.301 to 1 µM	–
CCNc1cc(Nc2ccc(C(=O)N3CCC(N4C[C@H]5C[C@@H]4CO5)CC3)c3c2OCC3)nc2[nH]cc(C(F)(F)F)c12 [Example 244, (4-((1R,4R)-2-oxa-5-azabicyclo[2.2.1]heptan-5-yl)piperidin-1-yl)(7-((4-(ethylamino)-3-(trifluoromethyl)-1H-pyrrolo[2,3-b]pyridin-6-yl)amino)-2,3-dihydrobenzofuran-4-yl)methanone]	–	< 0.1 µM	0.301 to 1 µM	< 0.1 µM
CCNc1cc(Nc2ccc(C(=O)N3CCN(C4COC4)CC3)c3c2OCC3)nc2[nH]cc(C(F)(F)F)c12 [Example 248, (7-((4-(ethylamino)-3-(trifluoromethyl)-1H-pyrrolo[2,3-b]pyridin-6-yl)amino)-2,3-dihydrobenzofuran-4-yl)(4-(oxetan-3-yl)piperazin-1-yl)methanone]	–	< 0.1 µM	0.301 to 1 µM	< 0.1 µM
O=C(c1ccc(Nc2cc(C3CC3)c3c(C(F)(F)F)c[nH]c3n2)c2c1CCO2)N1CC[C@@H](N2CCOCC2)C1 [Example 238, (R)-(7-((4-cyclopropyl-3-(trifluoromethyl)-1H-pyrrolo[2,3-b]pyridin-6-yl)amino)-2,3-dihydrobenzofuran-4-yl)(3-morpholinopyrrolidin-1-yl)methanone]	–	–	0.301 to 1 µM	–
CNc1cc(Nc2ccc(S(=O)(=O)N3CCC(N4CCOCC4)CC3)cc2OC)nc2[nH]cc(C(F)(F)F)c12 [Example 184, N^6-(2-methoxy-4-((4-morpholinopiperidin-1-yl)sulfonyl)phenyl)-N^4-methyl-3-(trifluoromethyl)-1H-pyrrolo[2,3-b]pyridine-4,6-diamine]	–	–	0.301 to 1 µM	–
CCNc1cc(Nc2ccc(P3(=O)CCN(C4CC4)CC3)cc2OC)nc2[nH]cc(C(F)(F)F)c12 [Example 206, 1-cyclopropyl-4-(4-((4-(ethylamino)-3-(trifluoromethyl)-1H-pyrrolo[2,3-b]pyridin-6-yl)amino)-3-methoxyphenyl)-1,4-azaphosphinane 4-oxide]	0.101 to 0.3 µM	0.301 to 1 µM	–	0.301 to 1 µM
O=C(c1ccc(Nc2cc(C3CC3)c3c(C(F)(F)F)c[nH]c3n2)c2c1CCO2)N1CCC(N2CCOCC2)CC1 [Example 93, (7-((4-cyclopropyl-3-(trifluoromethyl)-1H-pyrrolo[2,3-b]pyridin-6-yl)amino)-2,3-dihydrobenzofuran-4-yl)(4-morpholinopiperidin-1-yl)mthanone]	< 0.1 µM	< 0.1 µM	0.301 to 1 µM	–
COc1cc(S(=O)(=O)N2CCOCC2)ccc1Nc1cc(C2CC2)c2c(C(F)(F)F)c[nH]c2n1 [Example 222, 4-cyclopropyl-N-(2-methoxy-4-(morpholinosulfonyl)phenyl)-3-(trifluoromethyl)-1H-pyrrolo[2,3-b]pyridin-6-amine]	0.301 to 1 µM	0.301 to 1 µM	0.301 to 1 µM	–
O=C(c1ccc(Nc2cc(C3CC3)c3c(C(F)(F)F)c[nH]c3n2)c2c1CCO2)N1CCOCC1 [Example 91, (7-((4-cyclopropyl-3-(trifluoromethyl)-1H-pyrrolo[2,3-b]pyridin-6-yl)amino)-2,3-dihydrobenzofuran-4-yl)(morpholino) methanone]	0.301 to 1 µM	–	0.301 to 1 µM	–
CNc1cc(Nc2ccc(C(=O)N3CCC(N4CCOCC4)CC3)c3c2OCCO3)nc2[nH]cc(C(F)(F)F)c12 [Example 160, (8-((4-(methylamino)-3-(trifluoromethyl)-1H-pyrrolo[2,3-b]pyridin-6-yl)amino)-2,3-dihydrobenzo [b] [1,4]dioxin-5-yl)(4-morpholinopiperidin-1-yl)methanone]	< 0.1 µM	< 0.1 µM	–	0.101 to 0.3 µM
O=C(c1ccc(Nc2cc(C3CC3)c3c(C(F)(F)F)c[nH]c3n2)c2c1CCO2)N1CC[C@H](N2CCOCC2)C1 [Example 237, (S)-(7-((4-cyclopropyl-3-(trifluoromethyl)-1H-pyrrolo[2,3-b]pyridin-6-yl)amino)-2,3-dihydrobenzofuran-4-yl)(3-morpholinopyrrolidin-1-yl)methanone]	–	–	0.301 to 1 µM	–

More lines, now with the values ahead:

IC50 (LRRK2)	IC50 (human GST-CLK1 (129-end))	GI50 (MDA-MB-231 cell line)	IC50 [1]	SMILES
< 0.1 µM	< 0.1 µM	0.101 to 0.3 µM	< 0.1 µM	CNc1cc(Nc2ccc(S(=O)(=O)N3CCC(N4C[C@H]5C[C@@H]4CO5)CC3)cc2OC)nc2[nH]cc(C(F)(F)F)c12 [Example 243, N^6-(4-((4-((1R,4R)-2-oxa-5-azabicyclo[2.2.1]heptan-5-yl)piperidin-1-yl)sulfonyl)-2-methoxyphenyl)-N^4-methyl-3-(trifluoromethyl)-1H-pyrrolo[2,3-b]pyridine-4,6-diamine]
< 0.1 µM	0.101 to 0.3 µM	0.301 to 1 µM	0.301 to 1 µM	CCNc1cc(Nc2ccc(S(=O)(=O)N3CCC(N4CCOCC4)CC3)c3c2OCCO3)nc2[nH]cc(C(F)(F)F)c12 [Example 96, N^4-ethyl-N^6-(8-((4-morpholonopiperidin-1-yl)sulfonyl)-2,3-dihydrobenzo [b] [1,4]dioxin-5-yl)-3-(trifluoromethyl)-1H-pyrrolo[2,3-b]pyridine-4,6-diamine]
< 0.1 µM	< 0.1 µM	0.301 to 1 µM	< 0.1 µM	CCNc1cc(Nc2ccc(C(=O)N3C[C@@H]4C[C@H]3CO4)c3c2OCCO3)nc2[nH]cc(C(F)(F)F)c12 [Example 44, ((1S,4S)-2-oxa-5-azabicyclo[2.2.1]heptan-5-yl)(8-((4-(ethylamino)-3-(trifluoromethyl)-1H-pyrrolo[2,3-b]pyridin-6-yl)amino)-2,3-dihydrobenzo[b] [1,4]dioxin-5-yl)methanone]
< 0.1 µM	< 0.1 µM	0.301 to 1 µM	–	O=C(c1ccc(Nc2cc(C3CC3)c3c(C(F)(F)F)c[nH]c3n2)c2c1OCO2)N1CCC(N2CCOCC2)CC1 [Example 49, (7-((4-cyclopropyl-3-(trifluoromethyl)-1H-pyrrolo[2,3-b]pyridin-6-yl)amino)benzo[d][1,3]dioxol-4-yl)(4-morpholinopiperidin-1-yl)methanone]
–	0.301 to 1 µM	0.301 to 1 µM	0.301 to 1 µM	CCNc1cc(Nc2cc(F)c(S(=O)(=O)N3CCC(N4CCOCC4)CC3)cc2OC)nc2[nH]cc(C(F)(F)F)c12 [Example 266, N^4-ethyl-N^6-(5-fluoro-2-methoxy-4-((4-morpholinopiperidin-1-yl)sulfonyl)phenyl)-3-(trifluoromethyl)-1H-pyrrolo[2,3-b]pyridine-4,6-diamine]
0.101 to 0.3 µM	< 0.1 µM	0.301 to 1 µM	–	O=C(c1ccc(Nc2cc(C3CC3)c3c(C(F)(F)F)c[nH]c3n2)c2c1OCCO2)N1CCC(N2CCOCC2)CC1 [Example 221, (8-((4-cyclopropyl-3-(trifluoromethyl)-1H-pyrrolo[2,3-b]pyridin-6-yl)amino)-2,3-dihydrobenzo [b] [1,4]dioxin-5-yl)(4-morpholinopiperidin-1-yl)methanone]
< 0.1 µM	< 0.1 µM	0.301 to 1 µM	–	N#Cc1c[nH]c2nc(Nc3ccc(C(=O)N4CCC(N5CCOCC5)CC4)c4c3OCCO4)cc(C3CC3)c12 [Example 226, 4-cyclopropyl-6-((8-(4-morpholinopiperidine-1-carbonyl)-2,3-dihydrobenzo[b] [1,4]dioxin-5-yl)amino)-1H-pyrrolo[2,3-b]pyridine-3-carbonitrile]
< 0.1 µM	0.301 to 1 µM	0.051 to 0.1 µM	–	COc1cc(S(=O)(=O)N2CCC(N3CCOCC3)CC2)ccc1Nc1cc(C2CC2)c2c(C#N)c[nH]c2n1 [Example 228, 4-cyclopropyl-6-((2-methoxy-4-((4-morpholinopiperidin-1-yl)sulfonyl)phenyl)amino)-1H-pyrrolo[2,3-b]pyridine-3-carbonitrile]
